Assay results: patent US20020115594A1, “Peptide antagonists at glutamate and NMDA receptors” (priority 1993, published 2002)
Ends that are not written are not given here.

Legend:
[1] = tested on: NMDA receptors; assay: In vitro GnRH secretion by hypothalamic explants induced by NMA; assay type: cell-based, rat; details: 10^−6 M; explants of 50-day-old male rats; FIG. 8
Procedure: (§1) The hypothalamic explants of male Wistar rats were studied individually using a static incubation system described earlier (1-3, 9). The total incubation volume of each chamber (0.5 ml) was sampled and renewed every 7.5 min. Using these fractions, the radioimmunoassay of GnRH was performed as described in detail previously (1, 2). The secretion of GnRH was studied either in the absence of any secretagogue or during the 7.5-min exposure to 5.10^−5 M of veratridine, a depolarizing agent opening the Na^+ channel, or 5.10^−2 M of kainate or N-methyl-D, L-aspartate (NMA) which are agonists of distinct subtypes of glutamate receptors. All these products were bought from Sigma, St Louis, Mo. […] The secretory response of GnRH was calculated as the difference between the concentration measured immediately before and during exposure to the secretagogue.
(§2) We studied the effects of the in-vitro exposure to increasing concentrations of recombinant hIGF-I (Kabi-Pharmacia, Stockholm, Sweden) or its two subproducts, (1-3)IGF-I (Peninsula, Merseyside, England) and (4-70)IGF-I (Gropep, Adelaide, Australia). […] At that time, the serum was collected for the assay of IGF-I using a method described elsewhere (15) and testosterone was measured as well using a standard RIA (Sorin Biomedica). […] The occurrence of significant GnRH secretory pulses was determined using the pulsar program (2, 3). […]

[2] = tested on: GnRH secretion by hypothalamic explants; assay: In vitro GnRH secretion by hypothalamic explants induced by veratridine (static incubation, GnRH radioimmunoassay); assay type: cell-based, rat
Procedure: The hypothalamic explants of male Wistar rats were studied individually using a static incubation system described earlier (1-3, 9). The total incubation volume of each chamber (0.5 ml) was sampled and renewed every 7.5 min. Using these fractions, the radioimmunoassay of GnRH was performed as described in detail previously (1, 2). The secretion of GnRH was studied either in the absence of any secretagogue or during the 7.5-min exposure to 5.10^−5 M of veratridine, a depolarizing agent opening the Na^+ channel, or 5.10^−2 M of kainate or N-methyl-D, L-aspartate (NMA) which are agonists of distinct subtypes of glutamate receptors. All these products were bought from Sigma, St Louis, Mo. At 25 and 50 days, veratridine was used repeatedly at 37.5-min intervals. At 15 days, veratridine was used at 52.5-min intervals, i.e. beyond the period of refractoriness caused by the inhibitory autofeedback of GnRH(11). The secretory response of GnRH was calculated as the difference between the concentration measured immediately before and during exposure to the secretagogue.
(§3) We studied the effects of the in-vitro exposure to increasing concentrations of recombinant hIGF-I (Kabi-Pharmacia, Stockholm, Sweden) or its two subproducts, (1-3)IGF-I (Peninsula, Merseyside, England) and (4-70)IGF-I (Gropep, Adelaide, Australia). We also studied the effects of other peptides. The GnRH fragments and analogs included (1-5) GnRH (UCB, Brussels, Belgium), (2-10)GnRH (Sigma, St Louis, Mo., USA) and (1-9)GnRHa (D-TRP^6-PRO^9-N-Ethylamide GnRH) a GnRH agonist kindly provided by Dr J Rivier (The Salk Institute, California, USA). The bovine Proinsulin and its subproducts included the C-peptide of insulin and insulin itself (Novo-Nordisk, Copenhagen, Denmark). Finally, the GRF-related peptides included (1-43) rat GRP (Bachem, Bubendorf, Switzerland), (1-37) human GRF (Peninsula, Merseyside, England) and (1-29)human GRF (Kabi Pharmacia, Stockholm, Sweden). AP-5 (DL-2-amino-5-phosphonovaleric acid, Sigma), a selective antagonist at NMDA receptors and DNQX (6,7-dinitro-quinoxaline-2,3-dione, Tocris Neuramin, Buckhurst Hill, United Kingdom) a selective antagonist at kainate receptors, were also used. The different peptides or antagonists were used for 15 min, i.e. the 7.5-min fraction before and during exposure to veratridine. We also studied the effects of a single s.c. injection of IGF-I or its subproducts in 15 or 50 day-old rats. Then, the animals were sacrificed and the hypothalamic explants studied 25 min after the injection, this interval being required to obtain plasma concentrations of IGF-I sufficient to affect protein metabolism (A. Skottner, personal communication). At that time, the serum was collected for the assay of IGF-I using a method described elsewhere (15) and testosterone was measured as well using a standard RIA (Sorin Biomedica). The concentration of the studied substances resulting in 50% inhibition of the GnRH secretory response (IC50) was calculated as described earlier (3, 9) and the data were compared by covariance analysis. The occurrence of significant GnRH secretory pulses was determined using the pulsar program (2, 3).
FIG. 1. In vitro effects of IGF-I-related peptides on GnRH secretion by hypothalamic explants at 15, 25 and 50 days. GnRH secretory response to depolarizing episodes (veratridine 50 μM for 7.5 min) was studied repeatedly at intervals of 52.5 min at 15 days or 37.5 min at 25 and 50 days. Such study was performed in control conditions or in the presence of increasing concentrations of IGF-I and subproducts, (4-70)IGF-I and (1-3)IGF-I, as well as AP-5, a competitive antagonist at NMDA receptors. Each experiment was preceded and followed by a veratridine challenge in control conditions.

[3] = tested on: GnRH secretion by hypothalamic explants; assay: as above; assay type: cell-based, rat; remark: listed apart in the source
[4] = tested on: kainate receptors; assay: In vitro GnRH secretion by hypothalamic explants induced by kainate; assay type: cell-based, rat; details: 10^−6 M; explants of 50-day-old male rats; FIG. 8
Procedure: as §1, §2

[5] = tested on: glutamate receptors; assay: Displacement of tritiated glutamate from hypothalamic membrane preparations; assay type: binding; details: FIG. 9
Text: Hypothalmic membrane preparations are used to study the displacement of tritiated glutamate binding in the presence of different compounds. Glutamate is able to displace the binding of the tracer at relatively low 10^−6 to 10^−8 concentrations. […] This is because the affinity of tritiated glutamate for the NMDA receptors is less than for the other subtypes of glutamate receptors.

[6] = tested on: GnRH secretion by hypothalamic explants; assay: Ex vivo veratridine-induced GnRH secretion by hypothalamic explants after in-vivo s.c. injection; design: species or system rat
Text: as §3, with “3). […]” for “3).”

[7] = tested on: brain hypoxic-ischemic injury; details: reported in refs 22, 23; cited from earlier work
[8] = tested on: GnRH secretion by hypothalamic explants; assay: Spontaneous pulsatile secretion of GnRH from hypothalamic explants after s.c. injection; assay type: in vivo, rat; details: s.c. injection of 0.1 mg/kg; 50-day-old rats; data not shown
Text: as §3, with “The different peptides or antagonists were used for 15 min, i.e. the 7.5-min fraction before and during exposure to veratridine. We also studied the effects of a single s.c. injection of IGF-I or its subproducts in 15 or 50 day-old rats. Then, the animals were sacrificed and the hypothalamic explants studied 25 min after the injection, this interval being required to obtain plasma concentrations of IGF-I sufficient to affect protein metabolism (A. Skottner, personal communication).” left out, “The concentration of the studied substances resulting in 50% inhibition of the GnRH secretory response (IC50) was calculated as described earlier (3, 9) and the data were compared by covariance analysis.” left out, “3). […]” for “3).”

[9] = in vitro, explants of 50-day-old rats, FIG. 7

Q: What does the source list for `NC(CCCP(=O)(O)O)C(=O)O` (racemic) [AP-5, DL-2-amino-5-phosphonovaleric acid, reference compound]?
A: effect on secretion of GnRH induced by NMA [1]: inhibitory effects; effect on veratridine-induced secretion of GnRH ([2]; in vitro, explants at 15, 25 and 50 days): dose-related suppression

Q: Which “GnRH secretion induced by veratridine 5.10^−5 M” value ([3]; +NMA 5.10^−4 M alone, 50-day-old male rats, mean, n = 6) does the source give for `CNC(CC(=O)O)C(=O)O` (racemic) [NMA, N-methyl-D, L-aspartate, reference compound] here?
A: 98 % of controls

Q: For `O=C1N=c2cc([N+](=O)[O-])c([N+](=O)[O-])cc2=NC1=O` [DNQX, 6,7-dinitro-quinoxaline-2,3-dione], which “effect on kainate-induced secretion of GnRH” value [4] is on record?
A: inhibitory effects

Q: With `N[C@@H](CCC(=O)O)C(=O)O` [Glutamate] as the molecule, how does the “concentrations displacing the binding of the tracer” value [5] read?
A: 10^−6 to 10^−8

Q: With “(1-5)GnRH: peptide with a N-terminal glutamic acid which results from the degradation of GnRH in the hypothalamus (QHWSY; ends and bridges not checked; UniProt P01148 24-28, looked up, fragment)” as the molecule, how does the “displacement of tritiated glutamate binding” value [5] read?
A: act as competitors of glutamate binding

Q: And the “effect on veratridine-induced secretion of GnRH” value ([2]; FIG. 6)?
A: inhibited

Q: For “(1-29)GRF: human GRF subproduct retaining GH-releasing activity (YADAIFTNSYRKVLGQLSARKLLQDIMSR; Somatoliberin; UniProt P01286 32-60, looked up, fragment) [reference compound]”, which “effect on veratridine-induced secretion of GnRH” value [2, 9] is on record?
A: does not affect

Q: For “(1-37)GRF: human GRF subproduct, minor physiological form with a C-terminal glutamic acid (YADAIFTNSYRKVLGQLSARKLLQDIMSRQQGESNQE; Somatoliberin; UniProt P01286 32-68, looked up, fragment)”, which “effect on veratridine-induced secretion of GnRH” value [2, 9] is on record?
A: dose-related inhibition

Q: Which “effect on veratridine-induced secretion of GnRH” value [2, 9] does the source give for “(1-43)GRF: full (1-43) sequence of rat Growth Hormone-Releasing Factor (HADAIFTSSYRRILGQLYARKLLHEIMNRQQGERNQEQRSRFN; Somatoliberin; UniProt P09916 31-73, looked up) [reference compound]” here?
A: dose-related inhibition

Q: For “D-TRP^6-PRO^9-N-Ethylamide GnRH [(1-9)GnRHa, reference compound]”, which “effect on veratridine-induced secretion of GnRH” value ([2]; FIG. 6) is on record?
A: can be inhibited

Q: What about the IC50 ([2]; FIG. 6, read-out: IC50, inhibition of veratridine-induced GnRH secretion) of the same molecule?
A: 0.2 nM

Q: Which “effect on GnRH secretion from explants of 30-day-old female rats” value ([3]; data not shown) does the source give for “IGF-I: recombinant hIGF-I (Kabi-Pharmacia)” here?
A: inhibited

Q: What about the “period of suppression of the GnRH secretory response to veratridine” value ([6]; s.c. 0.05-0.2 mg/kg, directly related to dose, 50-day-old animals) of the same molecule?
A: 47.5 to 107.5 min

Q: And the “ex vivo effectiveness on veratridine-induced GnRH secretion at 15 and 50 days” value ([6]; s.c. injection, higher doses at 15 days, FIG. 3)?
A: only effective at 50 days

Q: What about the “period of marked inhibition of in-vitro GnRH secretion in response to veratridine” value ([6]; single s.c. injection of 0.5 mg/kg, 50-day-old animals) of the same molecule?
A: up to 167.5 min

Q: And the “displacement of tritiated glutamate binding” value [5]?
A: act as competitors of glutamate binding

Q: And the “protection against brain hypoxic-ischemic injury” value [7]?
A: can protect

Q: And the “effect on GnRH secretion at very high concentrations” value ([2]; 10^−4 and 10^−3 M, explants at 15 days, FIG. 4)?
A: inhibition of GnRH secretion

Q: And the “effect on veratridine-induced secretion of GnRH” value ([2]; in vitro, explants at 25 and 50 days)?
A: dose-related inhibition

Q: And the “effect on veratridine-induced secretion of GnRH” value ([2]; in vitro, explants at 15 days)?
A: not affected

Q: What about the “inhibitory effect on GnRH secretion in the presence of peptidase inhibitors” value ([2]; three different peptidase inhibitors, FIG. 5) of the same molecule?
A: can be prevented

Q: And the “period for which spontaneous pulsatile secretion of GnRH is abolished” value [8]?
A: ~2 h

Q: Which “effect on veratridine-induced secretion of GnRH” value [2, 9] does the source give for insulin: bovine insulin here?
A: no effects

B1: Proinsulin: bovine Proinsulin (protein, UniProt P01317 25-105, looked up)
pro-form: FVNQHLCGSHLVEALYLVCGERGFFYTPKARREVEGPQVGALELAGGPGAGGLEGPPQKRGIVEQCCASVCSLYQLENYCN
modifications: pro-form
Q: With B1 as the molecule, how does the “effect on veratridine-induced secretion of GnRH” value [2, 9] read?
A: dose-related suppression
